The record followed here is PubChem BioAssay (NCI).

Among the test systems are SNB-19 CNS; RPMI-8226 leukemia; HL-60(TB) leukemia; SW-620 colon; UACC-62 melanoma; SK-MEL-28 melanoma; LOX IMVI melanoma; TK-10 renal; NCI-H522 lung.
Experiment in all cases: NCI anticancer screen, dose series, 48 h

SMILES strings stand for the structures.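 In this assay, cells in 96-well plates receive the compound at five concentrations for 48 hours. Endpoints are linearly interpolated between the surrounding concentrations. The concentration for 50% growth inhibition is given as GI50. TGI denotes the concentration required for complete inhibition of growth.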

In the case of `COc1ccc(-c2cc(-c3ccc(Nc4ccnc5cc(Cl)ccc45)cc3)nc(N3CCOCC3)n2)cc1`, the figures for the GI50 with SNB-19 CNS, with RPMI-8226 leukemia and in the test on HL-60(TB) leukemia were 3.86 µM, 3.79 µM and 4.8 µM, respectively. In addition, the TGI in the test with SNB-19 CNS, in the test on RPMI-8226 leukemia and in the test on HL-60(TB) leukemia was above 100 µM in each case.

For `O=C1CC2CCN(C(=O)c3ccccc3)CC2CCN1` (stereo unspecified), the TGI in the test with SW-620 colon, in the test with SNB-19 CNS, in the test with UACC-62 melanoma, in the test on SK-MEL-28 melanoma, in the test on RPMI-8226 leukemia and in the test on HL-60(TB) leukemia was above 100 µM each time. Besides, the TGI in the test on LOX IMVI melanoma and with TK-10 renal was above 100 µM each time.

On to `NC(CCc1ncc(C(=O)O)s1)C(=O)O` (stereo unspecified), for which the TGI in the test on SW-620 colon, in the test on UACC-62 melanoma, in the test with SK-MEL-28 melanoma, in the test on RPMI-8226 leukemia, with LOX IMVI melanoma and in the test on NCI-H522 lung was above 100 µM in each case. In the test on TK-10 renal, this compound returned a TGI above 100 µM.

Regarding `COC(=O)c1c[nH]cc1CCCCc1c[nH]cc1C(=O)OC`, the TGI with SW-620 colon, with SNB-19 CNS, in the test with SK-MEL-28 melanoma, in the test on HL-60(TB) leukemia, in the test with LOX IMVI melanoma and in the test on NCI-H522 lung was above 100 µM throughout. This compound also returned a TGI in the test with TK-10 renal above 100 µM.

`O=C1c2ccc3c4ccccc4n(-c4ccccc4)c3c2C(=O)N1c1ccc(Cl)cc1`: the TGI in the test with SW-620 colon, with SNB-19 CNS, in the test with UACC-62 melanoma, in the test with HL-60(TB) leukemia, in the test with LOX IMVI melanoma and in the test with NCI-H522 lung was above 100 µM each time. This compound also yielded a TGI in the test with TK-10 renal above 100 µM.

Regarding `CC(C)(C)OC(=O)N1C2CCCC23O[C@@H]1c1cc2c(cc1C3=O)OCO2` (stereo partly specified), the TGI in the test on SW-620 colon was above 100 µM; in the test on SNB-19 CNS it was above 100 µM; with UACC-62 melanoma it was 67 µM; in the test on SK-MEL-28 melanoma it was above 100 µM; with HL-60(TB) leukemia it was 38.3 µM; with NCI-H522 lung, 31.3 µM. Further, the TGI in the test on TK-10 renal was above 100 µM.

Take `COc1cc2c(cc1OC)C1Cc3cc(OC)c(OC)cc3N1CC2` (stereo unspecified): the TGI in the test with SW-620 colon is above 100 µM; in the test with SNB-19 CNS, above 100 µM; in the test with UACC-62 melanoma, above 100 µM; in the test with SK-MEL-28 melanoma, above 100 µM; in the test on RPMI-8226 leukemia, 88 µM; with HL-60(TB) leukemia, 53.2 µM. Further, the TGI in the test with NCI-H522 lung amounted to 35 µM; in the test with TK-10 renal, 50.5 µM.

On to `Nc1ccc(C2=N/C(=C\c3cccc(N)c3)C(=O)O2)cc1`, for which the TGI in the test with SW-620 colon, with SNB-19 CNS, in the test on UACC-62 melanoma, in the test on SK-MEL-28 melanoma, in the test with HL-60(TB) leukemia and in the test with NCI-H522 lung was above 100 µM throughout. For the same compound, in the test on TK-10 renal, the TGI is above 100 µM.

Take `COc1cc(/C=N\O[Si](C)(C)C(C)(C)C)ccc1O[Si](C)(C)C(C)(C)C`: the TGI in the test on SW-620 colon was above 100 µM; in the test on SNB-19 CNS, above 100 µM; in the test on UACC-62 melanoma it was above 100 µM; in the test with RPMI-8226 leukemia it was above 100 µM; with HL-60(TB) leukemia it was above 100 µM; in the test with LOX IMVI melanoma, 62 µM. Further, in the test with TK-10 renal, the TGI is above 100 µM.

As to `Cc1ccc2[c](c1)[Sn]([c]1ccccc1)([c]1ccccc1)[c]1cc(C)ccc1N2C`, the GI50 in the test on SW-620 colon is 18.9 µM; in the test on SNB-19 CNS it was above 100 µM; with UACC-62 melanoma, 20.9 µM; in the test with SK-MEL-28 melanoma, 64.5 µM; with LOX IMVI melanoma, 13.2 µM; in the test with NCI-H522 lung, 21.8 µM. In the test on TK-10 renal, the GI50 is above 100 µM. Besides, the TGI in the test with SW-620 colon is 53.7 µM; in the test on SNB-19 CNS, above 100 µM; in the test with UACC-62 melanoma it was above 100 µM; in the test with SK-MEL-28 melanoma, above 100 µM; in the test on LOX IMVI melanoma, 29.6 µM; in the test with NCI-H522 lung, above 100 µM. The TGI in the test with TK-10 renal is above 100 µM.

Take `CCOC(=O)C(C)(c1c(C)[nH]c2ccccc12)c1c(C)[nH]c2ccccc12`: the TGI in the test with SW-620 colon worked out at 40.8 µM; in the test on UACC-62 melanoma it was 29.6 µM; with SK-MEL-28 melanoma, 30.5 µM; in the test on RPMI-8226 leukemia, 46.2 µM; in the test with HL-60(TB) leukemia it was 37.6 µM; in the test with TK-10 renal, 45.6 µM.

Regarding `Cc1ccc(C)c(N2C(=O)C(=O)C(c3nc4ccccc4o3)/C(=N/N)C2=O)c1` (stereo unspecified), the TGI in the test on SW-620 colon, in the test on SNB-19 CNS, with UACC-62 melanoma, with SK-MEL-28 melanoma, in the test with HL-60(TB) leukemia and in the test with NCI-H522 lung was above 100 µM in each case. The same compound gave a TGI in the test on TK-10 renal above 100 µM.

As to `C[Si](C)(C)CN1C(=O)c2ccccc2C1(O)c1ccccc1` (stereo unspecified), the TGI in the test with SW-620 colon, in the test with SNB-19 CNS, in the test on UACC-62 melanoma, in the test with SK-MEL-28 melanoma, in the test on HL-60(TB) leukemia and in the test with LOX IMVI melanoma was above 100 µM each time. Besides, the TGI in the test with NCI-H522 lung and in the test on TK-10 renal was above 100 µM each time.

In the case of `CCOC(=O)C1=C(Nc2ccc(Br)cc2)OCC1=O`, the TGI is above 100 µM with SW-620 colon; above 100 µM in the test on SNB-19 CNS; above 100 µM in the test on UACC-62 melanoma; above 100 µM with SK-MEL-28 melanoma; 33.9 µM in the test with HL-60(TB) leukemia; above 100 µM in the test with NCI-H522 lung. Further, in the test with TK-10 renal, the TGI was above 100 µM.
